Cytotoxicity data for 39 molecules are collected here from ChEMBL document CHEMBL3507680, “University of Dundee, Gates Library screen for HepG2 cell viability”.

This series in a line: Human HepG2 cell viability assay in 384 well format. The settings on record: HepG2 cells, read-out: Inhibition. The class given is toxicity, cell-based. On the set-up: dose 125 nL, time 70.5 hour; cytotoxicity at 70.5 h: concentration not given beside the values.
As for `COC1(CNC(=O)c2ccc(F)c(F)c2)CCSC1` (centres undefined), the cytotoxicity at 70.5 h is -11.7%.
On to `NC(=O)C1(Cc2ccc(-c3ccccc3)cc2)CCCNC1` (centres undefined), for which the cytotoxicity at 70.5 h was -1.37%.
Under `COCCN1C2(CCN(Cc3nccs3)C2)c2ccccc2S1(=O)=O` (centres undefined) stands -12.7%; under `CCc1nc(C2CCCN2C(=O)c2ccc3c(c2)nnn3CC)no1` (centres undefined), -3.25%; under `CC(C)c1nnc(CN2CCCC(Cn3cncn3)C2)o1` (centres undefined), -7.64%.
In the case of `Cc1ncc(CN(C)C2CCCN(c3cccnn3)C2)s1` (centres undefined), the cytotoxicity at 70.5 h was -2.85%.
Under `Cc1nccn1[C@@H]1CC[C@@H](NC(=O)CCCn2cncn2)[C@H]1O` stands 16.1%; under `COCCNC(=O)Cn1c(-c2cccc(Cl)c2)nc(C)c(CCO)c1=O`, 0.393%; under `COc1cc(C2CC(=O)Nc3c2c(=O)[nH]n3C2CCCC2)ccc1O` (centres undefined), -2.72%.
As to `COc1c(CNC2CCc3ccccc32)c(C)nn1C` (centres undefined), the cytotoxicity at 70.5 h is -10.5%.
`CC(C)(C)C(=O)NCC(=O)Nc1cccnc1`: the cytotoxicity at 70.5 h is -6.42%.
Under `Cc1cc(-c2nccs2)nc(C2CCN(Cc3ccccn3)CC2)n1` stands -3.72%; under `CC(C)C1CN(Cc2c[nH]cn2)CCCN1CC1CC1` (centres undefined), -17.8%; under `CCN1CC(C(=O)NCc2ccnc(-n3ccnc3C)c2)CC1=O` (centres undefined), -1.78%.
Take `CC(C)(O)CCc1cccc(C(=O)NCC2COCCO2)c1` (centres undefined): the cytotoxicity at 70.5 h is -1.78%.
For the molecule `Cc1ccccc1C(NC(=O)NCC1(CO)CC1)C1CC1` (centres undefined), the cytotoxicity at 70.5 h was -1.18%.
Turning to `O=C(Nc1nccs1)N(CCO)Cc1ccsc1`, the cytotoxicity at 70.5 h is 1.52%.
`CC(C)NC(=O)N1CCN(C(=O)C2CCOCC2)CC2(CNC(=O)C2)C1` (centres undefined): the cytotoxicity at 70.5 h is -16%.
Consider `Cc1cccc(NC(=O)[C@@H]2CCCN2Cc2nc3ccccc3o2)n1`, for which the cytotoxicity at 70.5 h was determined as 4.7%.
As to `O=c1c(NCc2ccco2)c(NCC(O)CN2CCOCC2)c1=O` (centres undefined), the cytotoxicity at 70.5 h is -6.2%.
On to `Cn1cccc1C(=O)N1CCC(O)(CN2CCc3ccccc3C2)C1` (centres undefined), for which the cytotoxicity at 70.5 h is -4.98%.
In the case of `CN(Cc1ccco1)Cc1ccccc1CNC(=O)c1ccncc1`, the cytotoxicity at 70.5 h is -8%.
Under `O=C(CN1CCC(c2cccc(F)c2)C1)NCc1ccco1` (centres undefined) stands 59.3%; under `c1ccc2c(c1)CC(n1ccnc1-c1cc3n(n1)CCNC3)CO2` (centres undefined), 1.41%; under `COc1ccc(CN2CCO[C@@H]3C[C@@H](C(=O)NC(C)C)C[C@H]32)cc1`, -5.46%.
Under `CCOc1ncccc1CNc1cc(COC)ncn1` stands 1.28%; under `CNC(=O)c1cc(S(=O)(=O)C(C)C)cs1`, 1.49%; under `CCOc1ccc(Cl)cc1CCNC(=O)c1ccc(=O)n(C)c1`, -10.2%.
On to `Cc1ccsc1C(=O)N1Cc2ccccc2C2(CCN(C)CC2)C1`, for which the cytotoxicity at 70.5 h was -6.4%.
`O=C(C1CCOCC1)N1CCO[C@H]2[C@H](OCC3CC3)CC[C@@H]21`: the cytotoxicity at 70.5 h was determined as 2.42%.
Regarding `CC(=O)N1CCC(NS(=O)(=O)c2cccnc2)CC1`, the cytotoxicity at 70.5 h stood at 8%.
Take `O=C1CC(NCc2ncc[nH]2)CN1CCc1cccc(Cl)c1` (centres undefined): the cytotoxicity at 70.5 h was -8.16%.
As for `c1cnc2nc(N3CCc4c(ncn4C4CC4)C3)ccc2n1`, the cytotoxicity at 70.5 h was -6.09%.
Take `CN1CCC(NC(=O)Nc2ccc(F)c(Br)c2)C1=O` (centres undefined): the cytotoxicity at 70.5 h turned out to be 21%.
For `CNC(=O)CN1CCC(NC(=O)N(C)Cc2c(C)noc2C)CC1`, the cytotoxicity at 70.5 h came out at 26.1%.
With `Cc1noc(C)c1CN(C)CC(=O)N1CCc2sccc2C1` the figure was -1.77%; with `Cc1ccc(CN2CC[C@H]3C(=O)N(Cc4cccnc4)CCO[C@H]3C2)o1`, -8.65%; with `c1ccc(CCN2CCOC3(CCc4ccccc43)C2)nc1` (centres undefined), -15.8%.
For the molecule `CC(C)n1cnc2c1C(C(=O)N1CCCC1)N(CC1CC1)CC2` (centres undefined), the cytotoxicity at 70.5 h was -1.74%.
